The source of these data is ChEMBL document CHEMBL4308871, “Design, synthesis and in vitro evaluation of stilbene derivatives as novel LSD1 inhibitors for AML therapy” (Bioorg Med Chem, 2018).

The target of experiment [1] is T1, Amine oxidase [flavin-containing] A (Homo sapiens, UniProt P21397).
T1 sequence (P21397 whole entry): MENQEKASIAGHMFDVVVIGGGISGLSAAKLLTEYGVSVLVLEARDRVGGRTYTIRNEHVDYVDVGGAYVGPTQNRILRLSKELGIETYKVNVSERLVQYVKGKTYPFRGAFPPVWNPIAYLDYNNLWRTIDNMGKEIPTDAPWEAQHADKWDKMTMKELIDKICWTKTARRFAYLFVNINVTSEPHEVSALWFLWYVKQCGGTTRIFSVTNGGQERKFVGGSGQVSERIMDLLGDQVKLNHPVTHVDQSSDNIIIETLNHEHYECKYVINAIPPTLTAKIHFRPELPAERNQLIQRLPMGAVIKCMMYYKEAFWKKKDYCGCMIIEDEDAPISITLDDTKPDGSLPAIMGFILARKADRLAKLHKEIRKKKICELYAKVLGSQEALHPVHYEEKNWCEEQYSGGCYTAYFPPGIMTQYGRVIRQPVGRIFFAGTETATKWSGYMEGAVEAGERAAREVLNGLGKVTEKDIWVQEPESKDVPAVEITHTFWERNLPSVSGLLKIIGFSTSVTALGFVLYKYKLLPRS
The experiment can be described thus: Inhibition of MAO-A (unknown origin) using (4S)-4,5-dihydro-2-(6-hydroxybenzothiazolyl)-4-thiazolecarboxylic acid as substrate by MAO-Glo assay.

In experiment [2] the target is Lysine-specific histone demethylase 1A (Homo sapiens, UniProt O60341). The experiment can be described thus: Inhibition of full length LSD1 (unknown origin) expressed in Escherichia coli BL21 (DE) using H3K4me2 peptide as substrate after 30 mins by fluorescence assay.
Another experiment deals with MV4-11. The experiment can be described thus: cells. The settings on record: Homo sapiens, MV4-11, 192 h.
Another experiment deals with MOLM-13. The experiment can be described thus: cells. The conditions noted are these: Homo sapiens, MOLM-13, 192 h.
The subject of experiment [3] is THP-1. Briefly: cells. The settings on record: Homo sapiens, THP-1, 192 h.
For experiment [4], the target named is T2, Amine oxidase [flavin-containing] B (Homo sapiens, UniProt P27338).
T2 sequence (P27338 whole entry): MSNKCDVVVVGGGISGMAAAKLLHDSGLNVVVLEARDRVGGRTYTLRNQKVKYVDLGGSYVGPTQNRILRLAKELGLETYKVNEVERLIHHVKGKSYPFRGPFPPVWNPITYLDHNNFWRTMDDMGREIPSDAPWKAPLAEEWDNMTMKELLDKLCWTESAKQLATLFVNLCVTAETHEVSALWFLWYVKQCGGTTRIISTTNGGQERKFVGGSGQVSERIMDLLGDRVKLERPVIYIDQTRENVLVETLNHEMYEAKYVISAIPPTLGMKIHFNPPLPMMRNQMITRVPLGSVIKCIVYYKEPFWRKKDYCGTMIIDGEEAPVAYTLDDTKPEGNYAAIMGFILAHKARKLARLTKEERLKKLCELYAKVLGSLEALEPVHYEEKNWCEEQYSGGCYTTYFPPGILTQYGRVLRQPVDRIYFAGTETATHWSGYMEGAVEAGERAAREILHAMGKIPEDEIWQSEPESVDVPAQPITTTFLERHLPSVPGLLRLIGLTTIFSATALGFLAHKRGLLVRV

The subject of experiment [5] is THP-1. The experiment can be described thus: Induction of morphological changes in human THP1 cells assessed as blurred cell membrane boundaries after 3 days by H and E staining based assay. In kind it is functional.
Experiment [6] concerns THP-1. Briefly: Induction of morphological changes in human THP1 cells assessed as chromatin shrinkage after 3 days by H and E staining based assay. The format is functional, cell-based.
Experiment [7] concerns THP-1. The experiment can be described thus: Inhibition of colony formation in human THP1 cells after 14 days by DAPI staining-based microscopic analysis. In kind it is functional, cell-based.

As a reminder, the IC50 is the concentration at which inhibition is half-maximal. Low values mean higher potency, high ones lower potency. As for `Nc1cccc(/C=C/c2ccc(O)c(-c3ccccn3)c2)c1`, the 50% inhibitory concentration (IC50) is above 50 µM in [1]; 0.301 µM in experiment [2]; 10.9 µM in the experiment on MV4-11; 12.5 µM with MOLM-13; 10.5 µM with THP-1 [3]; above 50 µM in experiment [4].

In the case of `N/C(=N\O)c1cccc(/C=C/c2ccnc(-c3cc(F)ccc3O)c2)c1`, the Activity result in the experiment on THP-1 [5] and in the experiment on THP-1 [6] was “Dose-dependent effect” each time. Besides, the IC50 in experiment [1] is above 50 µM; in the experiment on MV4-11, 7.49 µM; in the experiment on MOLM-13, 8.34 µM; with THP-1 [3], 5.76 µM; in experiment [4] it was above 50 µM. For the same compound, the inhibition result in the experiment on THP-1 [7] is “Dose-dependent effect”.

Consider `N/C(=N\O)c1cccc(/C=C/c2ccc(O)c(-c3ccccn3)c2)c1`, for which the IC50 in [1] is above 50 µM; with MV4-11, 4.71 µM; in the experiment on MOLM-13, 22.6 µM; in the experiment with THP-1 [3] it was 7.89 µM; in [4], above 50 µM.

In the case of `N/C(=N\O)c1cccc(/C=C/c2ccnc(-c3ccccc3O)c2)c1`, the IC50 in experiment [1] is above 50 µM; in the experiment on MV4-11 it was 15.8 µM; in the experiment on MOLM-13, 9.05 µM; in the experiment with THP-1 [3] it was 13.7 µM; in experiment [4], above 50 µM.

With `N[C@H]1CC[C@H](N[C@@H]2C[C@H]2c2ccccc2)CC1`, in the experiment with THP-1 [3], the IC50 was above 20 µM.
